According to ChEMBL document CHEMBL1201862, “PubChem BioAssay data set” (2004):
“And” between values parts separate entries of the source, which are not always exact repeats. Equal entries are not always repeated.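 Where inhibition never reached the appropriate level, the endpoint shown equals the highest concentration tested. Otherwise, values were interpolated linearly from a five-concentration, 48-hour dose response in 96-well plates. Here, GI50 denotes the concentration required for 50% inhibition of growth.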 The source made the active and inactive calls. No stated cut-off is given here; in the data, active = GI50 up to about 1.1 µM and inactive = higher.

Tests used:
Assay in all cases: inhibition of tumour cell growth, NCI panel, 48 h
[1] = system: TK-10
[2] = system: SW-620
[3] = system: SK-OV-3
[4] = system: SK-MEL-5
[5] = system: UACC-257
[6] = system: DU-145
[7] = system: EKVX
[8] = system: SNB-75
[9] = system: T47D
[10] = system: SK-MEL-28
[11] = system: NCI-H226
[12] = system: OVCAR-3
[13] = system: NCI/ADR-RES
[14] = system: NCI-H460
[15] = system: A498
[16] = system: HCT-116
[17] = system: SK-MEL-2
[18] = system: BT-549

Measured: GI50

Cn1c(=O)c2nc(Nc3ccccc3)[nH]c2n(C)c1=O
inactive: [1] > 10 µM | [2] > 10 µM | [3] > 10 µM | [4] > 10 µM | [5] > 10 µM | [6] > 10 µM | [7] > 10 µM | [8] > 10 µM | [9] > 10 µM | [10] > 10 µM

C=CO/N=[N+](\[O-])N(CC)CC
inactive: [1] > 100 µM | [2] > 100 µM | [3] > 100 µM | [11] > 100 µM | [4] > 100 µM | [5] > 100 µM | [6] > 100 µM | [7] > 100 µM | [12] > 100 µM | [8] > 100 µM | [13] > 100 µM | [14] > 100 µM | [15] > 100 µM | [9] > 100 µM | [10] > 100 µM | [16] > 100 µM

Cc1nc(=O)[nH]c2s/c(=N/C3CCCCC3)n(C3CCCCC3)c(=O)c12
inactive: [1] > 100 µM | [17] > 100 µM | [2] > 100 µM | [3] > 100 µM | [11] > 100 µM | [4] > 100 µM | [5] > 100 µM | [6] > 100 µM | [7] > 100 µM | [12] > 100 µM | [8] > 100 µM | [13] > 100 µM | [15] > 100 µM | [9] > 100 µM | [10] > 100 µM | [16] > 100 µM

NCCCc1nonc1C(=O)O
inactive: [1] > 100 µM | [17] > 100 µM | [2] > 100 µM | [3] > 100 µM | [11] > 100 µM | [4] > 100 µM | [5] > 100 µM | [6] > 100 µM | [7] > 100 µM | [12] > 100 µM | [8] > 100 µM | [13] > 100 µM | [14] > 100 µM | [9] > 100 µM | [10] > 100 µM | [16] > 100 µM

N#CC(C#N)=Cc1ccc2c(c1)OC(Cl)O2 (stereo not drawn)
inactive: [1] 29.6 µM | [17] 21.9 µM | [2] > 10 µM | [3] 28.5 µM | [11] 20.2 µM | [4] 19.1 µM | [5] 21.7 µM | [6] 27.7 µM | [7] 27.4 µM | [12] 22.1 µM | [8] 25.8 µM | [13] 42.1 µM | [9] 32.4 µM | [10] 19.9 µM | [16] 18.9 µM

CCCCC1=C(C(=O)N2CCOCC2)C2(OCCO2)C1Cl (stereo not drawn)
inactive: [1] 29.9 µM | [17] 19.8 µM | [2] 31 µM | [3] 26 µM | [11] 35.8 µM | [4] 18.5 µM | [5] 24.3 µM | [6] 44.5 µM | [7] 47.1 µM | [8] 30.2 µM | [13] 45.9 µM | [15] 66.7 µM | [9] 46 µM | [10] 23 µM | [16] 41.7 µM

Cc1ccc(C(=O)N/N=C(\N=N\c2ccccc2)c2ccc(N(C)C)cc2)cc1
inactive: [1] > 100 µM | [17] > 100 µM | [2] > 100 µM | [3] > 100 µM | [11] > 100 µM | [18] > 100 µM | [4] 92 µM | [5] > 100 µM | [6] 20.9 µM | [7] > 100 µM | [12] > 100 µM | [13] > 100 µM | [14] > 100 µM | [10] > 100 µM | [16] > 100 µM

C=C(C(=O)O)[C@@H]1C[C@@H]2O[C@H]1[C@@H](O)[C@@H](C)CCCC(C)=CCC[C@@]2(C)O
inactive: [1] > 100 µM and > 52.1 µM | [17] > 100 µM | [2] 39.8 µM and 58.1 µM | [3] > 100 µM | [11] > 100 µM | [4] > 100 µM and > 91.6 µM | [5] > 100 µM | [6] > 100 µM | [7] > 100 µM and > 94.4 µM | [12] > 100 µM and > 88.7 µM | [8] > 100 µM | [13] > 100 µM | [14] > 100 µM | [15] > 100 µM | [9] > 100 µM and > 84.9 µM | [10] > 100 µM | [16] 64.1 µM and > 83.4 µM

Cc1cc(OCc2nnc3n2N=C(c2cc(F)c(Cl)cc2Cl)/C(=C/c2ccc(Cl)cc2)S3)ccc1Cl
inactive: [1] 32.6 µM | [17] 29 µM | [2] 17.4 µM | [3] 50.9 µM | [11] 46 µM | [4] 17.9 µM | [5] 38.5 µM | [6] 17.4 µM | [7] 39.4 µM | [12] 30.5 µM | [13] 33.2 µM | [14] 25.9 µM | [15] 24.2 µM | [9] 20.4 µM | [10] 19.8 µM | [16] 12.8 µM

CCOC(=O)C1Cc2ccc(C)cc2C1=O (stereo not drawn)
inactive: [1] > 100 µM | [17] > 100 µM | [2] 88.1 µM | [3] > 100 µM | [11] > 100 µM | [4] 72.1 µM | [5] > 100 µM | [6] > 100 µM | [7] > 100 µM | [12] 46.9 µM | [8] > 100 µM | [13] 85.1 µM | [14] > 100 µM | [9] > 100 µM | [10] 23.8 µM | [16] > 100 µM

COc1ccc(NC(=O)Oc2cc(C)c3ccc(=O)cc-3o2)c(OC)c1.COc1ccc(NC(=O)Oc2ccc3c(C)cc(=O)oc3c2)c(OC)c1
inactive: [1] > 100 µM | [17] > 100 µM | [2] > 100 µM | [3] > 100 µM | [11] > 100 µM | [4] > 100 µM | [6] > 100 µM | [7] > 100 µM | [12] > 100 µM | [13] > 100 µM | [14] > 100 µM | [15] 31.9 µM | [9] > 100 µM | [10] > 100 µM | [16] > 100 µM

O=C1C2C=CC(C2)C(c2ccc(O)cc2)N1O (stereo not drawn)
inactive: [1] > 100 µM | [17] > 100 µM | [2] > 100 µM | [3] > 100 µM | [11] > 100 µM | [4] > 100 µM | [5] > 100 µM | [7] > 100 µM | [12] > 100 µM | [8] > 100 µM | [14] > 100 µM | [15] > 100 µM | [10] > 100 µM | [16] > 100 µM

O=C1c2ccccc2-c2oc(=O)c3ccccc3c21
inactive: [1] > 100 µM | [17] > 100 µM | [2] > 100 µM | [3] > 100 µM | [11] > 100 µM | [4] > 100 µM | [5] > 100 µM | [6] > 100 µM | [7] 24.8 µM | [12] > 100 µM | [8] > 100 µM | [13] > 100 µM | [14] > 100 µM | [15] > 100 µM | [9] > 100 µM | [10] > 100 µM | [16] > 100 µM
